Results on 10 molecules are retold here after ChEMBL document CHEMBL5518190, “Advancements in dual-target inhibitors of PI3K for tumor therapy: Clinical progress, development strategies, prospects” (Eur J Med Chem, 2024).

≈ marks a conversion by molar mass, not a printed value.

The target in test [1] is T1, Histone deacetylase 8 (Homo sapiens, UniProt Q9BY41).
T1 sequence (Q9BY41 whole entry): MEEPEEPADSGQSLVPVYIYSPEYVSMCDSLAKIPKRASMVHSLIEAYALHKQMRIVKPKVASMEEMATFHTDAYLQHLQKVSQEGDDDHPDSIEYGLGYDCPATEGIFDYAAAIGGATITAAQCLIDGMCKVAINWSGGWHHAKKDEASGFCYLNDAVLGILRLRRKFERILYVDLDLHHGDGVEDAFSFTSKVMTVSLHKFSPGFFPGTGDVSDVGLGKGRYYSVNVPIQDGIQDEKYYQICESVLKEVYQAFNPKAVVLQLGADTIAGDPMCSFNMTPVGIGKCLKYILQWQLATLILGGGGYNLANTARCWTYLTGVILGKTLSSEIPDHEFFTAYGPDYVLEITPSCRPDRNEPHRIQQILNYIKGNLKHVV
Kind of test: Inhibition of HDAC8 (unknown origin) by fluorescence based assay.

Test [2] concerns A-375. Kind of test: Antiproliferative activity against human A-375 cells assessed as reduction in cell viability measured after 48 hrs by MTT assay. It is filed as functional, cell-based. Conditions: A-375, 48 h. A general note: Tetrazolium assays rely on reduction of a dye to a coloured formazan, in cell work by metabolically active cells.
Test [3] addresses T2, Phosphatidylinositol 4,5-bisphosphate 3-kinase catalytic subunit beta isoform (Homo sapiens, UniProt P42338). Kind of test: Inhibition of human recombinant PI3Kbeta.
Test [4] addresses Histone deacetylase 1 (Homo sapiens, UniProt Q13547). Kind of test: Inhibition of HDAC1 (unknown origin) by fluorescence based assay.
Test [5] concerns the target T3, Phosphatidylinositol 4,5-bisphosphate 3-kinase catalytic subunit alpha isoform (Homo sapiens, UniProt P42336). Kind of test: Inhibition of full length wild type PI3Kalpha (unknown origin).
For test [6], the target named is T3, Phosphatidylinositol 4,5-bisphosphate 3-kinase catalytic subunit alpha isoform. Kind of test: Inhibition of PI3Kalpha (unknown origin) using PIP2 as substrate preincubated for 15 mins followed by substrate addition and measured after 1 hr by HTRF assay.
The target of test [7] is T2, Phosphatidylinositol 4,5-bisphosphate 3-kinase catalytic subunit beta isoform. Kind of test: Inhibition of PI3Kbeta (unknown origin) using […] as substrate preincubated for 15 mins followed by substrate addition and measured after 1 hr by HTRF assay. A general note: In TR-FRET formats the signal depends on donor and acceptor labels being close together.
Test [8] addresses T4, Phosphatidylinositol 4,5-bisphosphate 3-kinase catalytic subunit gamma isoform (Homo sapiens, UniProt P48736). Kind of test: Inhibition of PI3Kgamma (unknown origin) using […] as substrate preincubated for 15 mins followed by substrate addition and measured after 1 hr by HTRF assay.
Test [9] has as its target T5, Phosphatidylinositol 4,5-bisphosphate 3-kinase catalytic subunit delta isoform (Homo sapiens, UniProt O00329).
T5 sequence (O00329 whole entry): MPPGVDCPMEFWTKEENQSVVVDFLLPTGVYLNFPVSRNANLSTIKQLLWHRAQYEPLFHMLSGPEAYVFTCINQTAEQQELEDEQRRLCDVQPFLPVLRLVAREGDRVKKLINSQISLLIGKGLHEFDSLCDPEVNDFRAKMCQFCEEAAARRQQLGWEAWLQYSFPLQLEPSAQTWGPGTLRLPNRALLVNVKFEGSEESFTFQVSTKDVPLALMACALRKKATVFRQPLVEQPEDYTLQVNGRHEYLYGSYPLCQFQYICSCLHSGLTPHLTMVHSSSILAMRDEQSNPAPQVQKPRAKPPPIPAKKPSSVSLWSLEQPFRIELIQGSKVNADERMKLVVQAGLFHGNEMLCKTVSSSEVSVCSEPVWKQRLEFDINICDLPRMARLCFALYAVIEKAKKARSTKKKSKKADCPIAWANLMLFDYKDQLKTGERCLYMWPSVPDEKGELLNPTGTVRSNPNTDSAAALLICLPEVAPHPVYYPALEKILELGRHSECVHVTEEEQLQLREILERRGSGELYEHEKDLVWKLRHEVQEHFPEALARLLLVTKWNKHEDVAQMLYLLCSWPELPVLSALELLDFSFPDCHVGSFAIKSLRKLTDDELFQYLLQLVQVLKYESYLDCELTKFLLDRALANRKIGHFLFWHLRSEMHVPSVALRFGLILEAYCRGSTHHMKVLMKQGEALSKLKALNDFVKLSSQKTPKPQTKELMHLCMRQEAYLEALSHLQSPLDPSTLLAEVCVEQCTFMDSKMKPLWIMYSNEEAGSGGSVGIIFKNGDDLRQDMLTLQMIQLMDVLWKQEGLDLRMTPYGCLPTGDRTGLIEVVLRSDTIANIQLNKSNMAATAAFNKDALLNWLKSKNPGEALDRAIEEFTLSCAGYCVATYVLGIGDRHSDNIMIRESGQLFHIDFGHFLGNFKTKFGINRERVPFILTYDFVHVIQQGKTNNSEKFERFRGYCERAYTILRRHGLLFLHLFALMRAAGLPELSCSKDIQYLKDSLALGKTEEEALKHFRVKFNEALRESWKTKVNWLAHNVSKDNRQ
Kind of test: Inhibition of PI3Kdelta (unknown origin) using PIP2 as substrate preincubated for 15 mins followed by substrate addition and measured after 1 hr by HTRF assay.

The target in test [10] is Epidermal growth factor receptor (Homo sapiens, UniProt P00533). Kind of test: Inhibition of EGFR (unknown origin).
Chain of Epidermal growth factor receptor (P00533 whole entry): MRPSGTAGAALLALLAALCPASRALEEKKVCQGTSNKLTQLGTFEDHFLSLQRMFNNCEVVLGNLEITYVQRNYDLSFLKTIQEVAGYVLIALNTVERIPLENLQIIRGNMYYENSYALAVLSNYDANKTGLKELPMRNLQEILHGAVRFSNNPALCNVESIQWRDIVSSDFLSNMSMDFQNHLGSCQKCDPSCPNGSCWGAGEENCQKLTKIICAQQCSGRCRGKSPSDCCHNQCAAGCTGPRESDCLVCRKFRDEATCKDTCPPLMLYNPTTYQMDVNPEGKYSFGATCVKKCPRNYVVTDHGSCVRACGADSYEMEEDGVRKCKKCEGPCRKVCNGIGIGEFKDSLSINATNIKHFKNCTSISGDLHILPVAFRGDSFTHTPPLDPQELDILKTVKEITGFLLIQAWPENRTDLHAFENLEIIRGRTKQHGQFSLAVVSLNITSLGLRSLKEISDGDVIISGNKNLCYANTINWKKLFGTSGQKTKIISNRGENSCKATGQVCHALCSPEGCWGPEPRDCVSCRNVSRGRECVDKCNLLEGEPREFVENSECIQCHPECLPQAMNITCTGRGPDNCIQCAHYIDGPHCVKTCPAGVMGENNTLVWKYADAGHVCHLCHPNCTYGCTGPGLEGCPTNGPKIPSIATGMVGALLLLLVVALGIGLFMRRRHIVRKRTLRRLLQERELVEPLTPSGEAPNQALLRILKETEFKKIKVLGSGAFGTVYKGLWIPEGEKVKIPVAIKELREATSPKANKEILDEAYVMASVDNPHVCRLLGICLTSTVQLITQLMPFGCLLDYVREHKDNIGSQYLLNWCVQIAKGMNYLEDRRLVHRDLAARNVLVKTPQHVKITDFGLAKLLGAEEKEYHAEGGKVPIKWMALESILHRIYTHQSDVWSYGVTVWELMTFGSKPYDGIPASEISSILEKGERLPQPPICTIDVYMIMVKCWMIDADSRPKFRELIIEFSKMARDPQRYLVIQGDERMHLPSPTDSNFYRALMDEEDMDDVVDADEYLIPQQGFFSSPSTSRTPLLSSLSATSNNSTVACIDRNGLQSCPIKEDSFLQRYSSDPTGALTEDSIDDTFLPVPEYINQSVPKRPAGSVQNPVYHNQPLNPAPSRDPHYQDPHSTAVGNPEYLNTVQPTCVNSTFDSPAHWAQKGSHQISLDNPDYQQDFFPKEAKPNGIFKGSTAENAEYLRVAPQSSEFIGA
Test [11] in a line: Cytotoxicity against human SK-ES cells assessed as reduction in cell viability incubated for 48 hrs by CellTiter-Blue reagent based […] assay. It is filed as functional. In general terms: Resazurin is reduced to fluorescent resorufin, in cell work by metabolically active cells.
The nature of test [12]: Antiproliferative activity against human A2780cis cells assessed as inhibition of cell growth incubated for 72 hrs by cell-titer glo assay. It is filed as functional, cell-based.
Test [13] has as its target Mitogen-activated protein kinase 1 (Homo sapiens) (UniProt P28482). Kind of test: Inhibition of ERK2 (unknown origin) at 1 uM relative to control by ADP-Glo assay.
Test [14] deals with T3, Phosphatidylinositol 4,5-bisphosphate 3-kinase catalytic subunit alpha isoform. Kind of test: Inhibition of PI3Kalpha (unknown origin) at 1 uM by kinase-glo luminescent assay relative to control.
For test [15] the target is unchanged.
Test [16] deals with T4, Phosphatidylinositol 4,5-bisphosphate 3-kinase catalytic subunit gamma isoform.
In test [17] the target is T1, Histone deacetylase 8. Kind of test: Inhibition of HDAC8 (unknown origin) using Fluoro-Substrate Peptide as substrate by fluorescence assay.
In test [18] the target is Serine/threonine-protein kinase mTOR (Homo sapiens, UniProt P42345).
Test [19] deals with B16. Kind of test: Antiproliferative activity against mouse B16 cells assessed as reduction in cell viability measured for 48 hrs by MTT assay. It is filed as functional, cell-based. Conditions: B16, 48 h.

T3 sequence (P42336 whole entry, canonical isoform): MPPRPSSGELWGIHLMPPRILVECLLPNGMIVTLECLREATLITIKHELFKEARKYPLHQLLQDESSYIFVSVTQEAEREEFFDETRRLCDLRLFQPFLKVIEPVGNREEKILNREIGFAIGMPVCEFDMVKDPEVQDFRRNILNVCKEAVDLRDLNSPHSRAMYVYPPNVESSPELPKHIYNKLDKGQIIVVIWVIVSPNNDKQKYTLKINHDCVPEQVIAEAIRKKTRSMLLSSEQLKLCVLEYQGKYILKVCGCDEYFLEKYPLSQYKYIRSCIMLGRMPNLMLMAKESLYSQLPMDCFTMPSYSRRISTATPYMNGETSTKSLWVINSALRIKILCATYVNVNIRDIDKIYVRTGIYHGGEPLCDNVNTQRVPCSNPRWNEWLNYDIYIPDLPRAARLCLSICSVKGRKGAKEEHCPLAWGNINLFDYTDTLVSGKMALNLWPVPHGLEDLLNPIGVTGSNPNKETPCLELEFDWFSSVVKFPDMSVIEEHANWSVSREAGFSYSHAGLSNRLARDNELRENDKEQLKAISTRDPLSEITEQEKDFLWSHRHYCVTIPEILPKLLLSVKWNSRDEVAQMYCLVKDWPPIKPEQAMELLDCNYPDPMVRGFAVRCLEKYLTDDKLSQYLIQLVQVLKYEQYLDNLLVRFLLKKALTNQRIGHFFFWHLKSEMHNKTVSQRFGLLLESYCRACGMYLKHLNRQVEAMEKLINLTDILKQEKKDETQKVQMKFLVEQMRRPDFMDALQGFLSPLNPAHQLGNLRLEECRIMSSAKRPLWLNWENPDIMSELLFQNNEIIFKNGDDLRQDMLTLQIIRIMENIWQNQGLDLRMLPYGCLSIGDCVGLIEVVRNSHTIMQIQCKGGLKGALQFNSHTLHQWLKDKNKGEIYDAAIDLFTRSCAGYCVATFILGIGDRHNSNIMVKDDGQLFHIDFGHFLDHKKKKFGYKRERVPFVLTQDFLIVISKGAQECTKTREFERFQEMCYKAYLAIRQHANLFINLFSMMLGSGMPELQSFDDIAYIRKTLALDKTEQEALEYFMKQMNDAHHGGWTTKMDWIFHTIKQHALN
T4 sequence (P48736 whole entry, canonical isoform): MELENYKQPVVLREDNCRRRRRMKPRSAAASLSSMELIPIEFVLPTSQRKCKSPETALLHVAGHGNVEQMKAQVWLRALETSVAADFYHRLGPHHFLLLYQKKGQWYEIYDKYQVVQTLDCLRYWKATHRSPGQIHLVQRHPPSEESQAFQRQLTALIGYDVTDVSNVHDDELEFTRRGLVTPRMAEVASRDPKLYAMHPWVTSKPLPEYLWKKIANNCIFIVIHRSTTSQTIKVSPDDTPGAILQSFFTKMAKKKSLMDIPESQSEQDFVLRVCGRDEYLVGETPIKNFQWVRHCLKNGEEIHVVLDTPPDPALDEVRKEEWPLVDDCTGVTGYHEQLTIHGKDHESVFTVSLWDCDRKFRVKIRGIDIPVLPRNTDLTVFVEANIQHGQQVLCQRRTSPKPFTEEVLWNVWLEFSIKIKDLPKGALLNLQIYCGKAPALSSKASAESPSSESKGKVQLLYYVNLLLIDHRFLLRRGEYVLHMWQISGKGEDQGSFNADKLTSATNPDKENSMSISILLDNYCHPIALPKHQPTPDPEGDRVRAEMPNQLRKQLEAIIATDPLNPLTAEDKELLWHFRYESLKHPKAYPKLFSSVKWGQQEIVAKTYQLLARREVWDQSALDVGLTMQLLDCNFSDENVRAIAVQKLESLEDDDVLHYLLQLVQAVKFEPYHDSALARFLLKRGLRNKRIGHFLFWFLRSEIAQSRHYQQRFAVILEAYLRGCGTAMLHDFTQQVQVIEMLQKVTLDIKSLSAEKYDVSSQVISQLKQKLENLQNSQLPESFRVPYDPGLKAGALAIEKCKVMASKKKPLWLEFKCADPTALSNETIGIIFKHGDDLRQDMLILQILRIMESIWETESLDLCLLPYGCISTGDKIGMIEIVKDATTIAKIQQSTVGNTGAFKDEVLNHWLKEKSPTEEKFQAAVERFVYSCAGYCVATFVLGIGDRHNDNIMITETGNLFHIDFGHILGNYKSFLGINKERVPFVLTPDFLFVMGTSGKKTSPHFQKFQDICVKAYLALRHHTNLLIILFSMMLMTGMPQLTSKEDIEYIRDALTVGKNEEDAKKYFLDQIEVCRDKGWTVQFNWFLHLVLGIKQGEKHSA
T2 sequence (P42338 whole entry, canonical isoform): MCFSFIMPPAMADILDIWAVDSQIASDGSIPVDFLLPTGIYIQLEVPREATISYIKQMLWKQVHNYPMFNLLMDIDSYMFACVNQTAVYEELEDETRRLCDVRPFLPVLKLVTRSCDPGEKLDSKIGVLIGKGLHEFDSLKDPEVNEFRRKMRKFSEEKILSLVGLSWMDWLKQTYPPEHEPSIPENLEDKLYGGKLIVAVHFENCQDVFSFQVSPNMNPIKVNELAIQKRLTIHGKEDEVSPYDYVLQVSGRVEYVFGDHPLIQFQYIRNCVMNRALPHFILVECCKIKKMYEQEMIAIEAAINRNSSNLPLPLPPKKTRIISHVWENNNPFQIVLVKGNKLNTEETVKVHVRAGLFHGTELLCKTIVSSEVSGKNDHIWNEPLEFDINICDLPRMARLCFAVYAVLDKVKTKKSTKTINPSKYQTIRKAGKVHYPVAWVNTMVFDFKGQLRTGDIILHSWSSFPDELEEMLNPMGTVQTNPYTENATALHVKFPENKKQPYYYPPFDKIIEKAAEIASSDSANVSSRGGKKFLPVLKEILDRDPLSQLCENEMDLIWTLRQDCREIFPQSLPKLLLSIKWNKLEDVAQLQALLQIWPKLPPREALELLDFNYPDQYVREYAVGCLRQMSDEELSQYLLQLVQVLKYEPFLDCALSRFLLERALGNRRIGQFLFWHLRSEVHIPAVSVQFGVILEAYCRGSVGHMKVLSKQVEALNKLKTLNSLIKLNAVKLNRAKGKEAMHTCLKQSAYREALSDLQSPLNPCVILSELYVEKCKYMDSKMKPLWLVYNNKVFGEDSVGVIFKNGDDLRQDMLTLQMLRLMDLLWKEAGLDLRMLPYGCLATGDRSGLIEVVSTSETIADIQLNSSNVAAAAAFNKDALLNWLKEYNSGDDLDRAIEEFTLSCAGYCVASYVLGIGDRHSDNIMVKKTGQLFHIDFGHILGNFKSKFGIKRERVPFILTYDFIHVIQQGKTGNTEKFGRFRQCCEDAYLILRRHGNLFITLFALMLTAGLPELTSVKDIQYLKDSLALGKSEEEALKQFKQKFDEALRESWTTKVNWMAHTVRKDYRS
Chain of Mitogen-activated protein kinase 1 (Homo sapiens) (P28482 whole entry, canonical isoform): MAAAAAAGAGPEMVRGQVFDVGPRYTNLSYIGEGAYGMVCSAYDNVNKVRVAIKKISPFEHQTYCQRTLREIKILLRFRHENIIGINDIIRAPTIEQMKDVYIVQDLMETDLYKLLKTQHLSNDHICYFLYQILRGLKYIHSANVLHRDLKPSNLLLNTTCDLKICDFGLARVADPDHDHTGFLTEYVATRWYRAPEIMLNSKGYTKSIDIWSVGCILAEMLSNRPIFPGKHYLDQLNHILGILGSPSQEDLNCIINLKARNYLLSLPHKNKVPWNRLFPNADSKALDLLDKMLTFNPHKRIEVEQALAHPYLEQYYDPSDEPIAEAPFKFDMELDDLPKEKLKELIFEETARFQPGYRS

For orientation: IC50 means the midpoint of a concentration-inhibition curve. In test [1], `O=C(NO)c1ccc(/C=N/NC(=O)c2cc(N3CCOCC3)nc(-c3cccc4[nH]ncc34)n2)cc1` registered an IC50 of 66.5 nM. For the molecule `CC(C)c1cc(C(=O)N2CCc3c(sc4nc(-c5cccnc5)nc(N5CCOCC5)c34)C2)c(O)cc1O`, the IC50 in test [2] is 2.29 µg/mL (≈ 4.31 µM). As to `O=C(Nc1ncc2ncc(-c3cn[nH]c3)cc2n1)NC1CCCC1`, the half-maximal inhibitory concentration (IC50) in [3] is 5 nM. Take `CC(C)[C@H]1NC(=O)C[C@H]2/C=C/CCSSC[C@@H](NC1=O)C(=O)N[C@H](Cc1ccccc1)C(=O)NCC(=O)O2`: the half-inhibitory concentration (IC50) was 2.5 nM in test [4] and 27300 nM in [5].

`CCOC(=O)c1nn(-c2ccccc2)c(=O)c2c(N)c(C#N)c(-c3cccs3)cc12`: the IC50 in test [6] is 10500 nM; in [7], 32700 nM; in test [8], 30000 nM; in test [9], 7470 nM; in test [10], 114000 nM.

On to `CC(C)OC(=O)N1CCC(Nc2ncnc3ccc(-c4cnc(Cl)c(NS(=O)(=O)c5ccc(F)cc5F)c4)nc23)CC1`, for which the values for the IC50 in test [11] and in [12] were 99.5 nM and 213 nM, respectively. Usually inhibition stands for the change of the read-out against control, counted positive when it falls. A low value points to a response near the control. Consider `Cn1cc(-c2n[nH]c3nc(NC(=O)NC4CCCC4)ncc23)cn1`, for which the inhibition in test [13] is 79.5%; in test [14], 4%. In the case of `COc1c(OCCCCCC(=O)NO)ccc2c1N=C(NC(=O)c1ccccc1)N1CCN=C21`, the IC50 stood at 2.98 nM in test [15], 25 nM in [16] and 153 nM in test [17]. Molecule `CCn1c(=O)c(-c2cc[nH]n2)cc2c(C)nc(N)nc21` [VOXTALISIB] returned an IC50 in test [18] of 150 nM.

In the case of `CC(C)c1cc(C(=O)N2CCc3c(sc4ncnc(N5CCOCC5)c34)C2)c(O)cc1O`, the IC50 in [19] was determined as 0.47 µg/mL (≈ 1.03 µM).
